Assays:
HDAC6 = biological target: T1, HDAC6 (Homo sapiens, UniProt Q9UBN7); details: Targeted HDAC/Sirtuin: 6; cited from earlier work
T1 sequence (Q9UBN7 1-1215): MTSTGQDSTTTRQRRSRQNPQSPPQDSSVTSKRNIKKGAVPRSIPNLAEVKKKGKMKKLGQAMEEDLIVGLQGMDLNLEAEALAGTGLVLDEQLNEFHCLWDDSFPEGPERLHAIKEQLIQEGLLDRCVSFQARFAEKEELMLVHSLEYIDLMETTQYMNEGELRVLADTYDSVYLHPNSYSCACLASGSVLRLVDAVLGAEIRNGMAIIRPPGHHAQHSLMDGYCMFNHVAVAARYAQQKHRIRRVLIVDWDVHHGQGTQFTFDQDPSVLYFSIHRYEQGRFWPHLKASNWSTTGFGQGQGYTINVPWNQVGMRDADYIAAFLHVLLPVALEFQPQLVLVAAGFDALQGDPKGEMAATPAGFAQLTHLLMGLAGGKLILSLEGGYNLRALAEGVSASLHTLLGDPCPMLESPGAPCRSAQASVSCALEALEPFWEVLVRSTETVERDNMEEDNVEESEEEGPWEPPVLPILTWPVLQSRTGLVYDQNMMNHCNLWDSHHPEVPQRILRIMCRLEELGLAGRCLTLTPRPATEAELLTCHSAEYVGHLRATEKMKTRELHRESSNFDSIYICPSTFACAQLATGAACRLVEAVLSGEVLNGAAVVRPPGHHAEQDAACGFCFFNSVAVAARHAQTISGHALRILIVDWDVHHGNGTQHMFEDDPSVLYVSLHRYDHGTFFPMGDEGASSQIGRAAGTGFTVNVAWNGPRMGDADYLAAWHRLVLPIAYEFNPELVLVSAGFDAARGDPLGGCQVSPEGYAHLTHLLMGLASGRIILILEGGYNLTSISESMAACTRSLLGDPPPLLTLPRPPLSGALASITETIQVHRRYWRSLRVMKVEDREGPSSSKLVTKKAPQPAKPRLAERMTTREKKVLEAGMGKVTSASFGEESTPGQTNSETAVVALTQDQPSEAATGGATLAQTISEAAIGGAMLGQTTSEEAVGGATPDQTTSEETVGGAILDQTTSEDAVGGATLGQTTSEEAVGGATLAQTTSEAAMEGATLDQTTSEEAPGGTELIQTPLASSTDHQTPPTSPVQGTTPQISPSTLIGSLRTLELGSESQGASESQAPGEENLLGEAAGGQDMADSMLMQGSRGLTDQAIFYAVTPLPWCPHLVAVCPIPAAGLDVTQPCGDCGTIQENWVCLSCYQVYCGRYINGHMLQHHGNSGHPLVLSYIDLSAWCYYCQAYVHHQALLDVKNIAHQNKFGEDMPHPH

HDAC8 = biological target: T2, HDAC8 (Homo sapiens, UniProt Q9BY41); details: Targeted HDAC/Sirtuin: 8; cited from earlier work
T2 sequence (Q9BY41 1-377): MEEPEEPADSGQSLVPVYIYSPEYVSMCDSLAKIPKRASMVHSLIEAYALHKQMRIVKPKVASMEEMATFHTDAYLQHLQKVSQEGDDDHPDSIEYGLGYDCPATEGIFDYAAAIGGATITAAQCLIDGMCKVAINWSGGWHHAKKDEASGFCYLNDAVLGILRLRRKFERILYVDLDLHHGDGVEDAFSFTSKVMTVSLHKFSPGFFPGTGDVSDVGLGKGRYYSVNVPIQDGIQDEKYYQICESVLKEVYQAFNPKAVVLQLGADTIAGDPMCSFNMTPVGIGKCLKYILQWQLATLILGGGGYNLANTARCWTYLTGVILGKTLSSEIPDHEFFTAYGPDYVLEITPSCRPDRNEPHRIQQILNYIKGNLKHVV

HDAC3 = HDAC3 (Homo sapiens, UniProt O15379); details: Targeted HDAC/Sirtuin: 3; cited from earlier work
HDAC3, sequence (O15379 whole entry): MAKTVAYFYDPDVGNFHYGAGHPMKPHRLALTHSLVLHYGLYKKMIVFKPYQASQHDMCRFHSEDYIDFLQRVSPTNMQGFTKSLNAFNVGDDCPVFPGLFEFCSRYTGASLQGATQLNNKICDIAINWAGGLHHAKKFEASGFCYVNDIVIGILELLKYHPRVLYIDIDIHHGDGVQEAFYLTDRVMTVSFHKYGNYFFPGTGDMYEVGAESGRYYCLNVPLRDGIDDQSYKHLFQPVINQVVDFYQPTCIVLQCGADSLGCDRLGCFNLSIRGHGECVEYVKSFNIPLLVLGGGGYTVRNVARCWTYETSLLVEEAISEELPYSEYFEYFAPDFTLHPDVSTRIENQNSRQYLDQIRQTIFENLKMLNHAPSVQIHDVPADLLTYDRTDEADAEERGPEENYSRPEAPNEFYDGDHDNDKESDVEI
HDAC3, sequence (Q9Y618 395-489 partner limits assumed): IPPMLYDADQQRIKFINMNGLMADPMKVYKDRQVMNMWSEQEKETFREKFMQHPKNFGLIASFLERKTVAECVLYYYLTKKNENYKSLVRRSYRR

Neuro2A cells = experiment: Transfection of Neuro2A cells with PKC inhibitor; assay type: cell-based; details: 2 μM, 45 min prior and after transfection; LPEI/pDNA N/P=20; 24 h
Protocol: Neuro2A cells were treated with GÖ6983 (2 μM) for 45 min prior transfection. Transfection mixture (LPEI/pDNA at N/P=20) was replaced with DMEM containing 0.5% FBS and GÖ6983 (2 μM). Representative images (acquired 24 h post transfection) were shown.

HDAC2 = HDAC2 (Homo sapiens, UniProt Q92769); details: Targeted HDAC/Sirtuin: 2; cited from earlier work
HDAC2, sequence (Q92769 whole entry): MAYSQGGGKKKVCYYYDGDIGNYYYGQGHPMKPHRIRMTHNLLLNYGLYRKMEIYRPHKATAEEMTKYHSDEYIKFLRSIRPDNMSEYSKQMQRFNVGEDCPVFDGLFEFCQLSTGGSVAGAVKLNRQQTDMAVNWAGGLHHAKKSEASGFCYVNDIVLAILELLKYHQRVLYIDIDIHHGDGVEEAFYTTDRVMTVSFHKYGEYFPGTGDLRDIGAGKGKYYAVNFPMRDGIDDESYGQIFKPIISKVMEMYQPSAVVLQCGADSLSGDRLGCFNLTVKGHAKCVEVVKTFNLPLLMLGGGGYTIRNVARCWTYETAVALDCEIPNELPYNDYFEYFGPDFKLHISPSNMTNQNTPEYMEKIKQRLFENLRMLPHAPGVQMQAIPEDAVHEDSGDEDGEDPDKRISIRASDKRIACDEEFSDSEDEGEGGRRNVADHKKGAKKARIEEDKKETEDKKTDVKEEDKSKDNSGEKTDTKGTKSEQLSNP

HDAC1 = HDAC1 (Homo sapiens, UniProt Q13547); details: Targeted HDAC/Sirtuin: 1; cited from earlier work
HDAC1, sequence (Q13547 whole entry, species assumed): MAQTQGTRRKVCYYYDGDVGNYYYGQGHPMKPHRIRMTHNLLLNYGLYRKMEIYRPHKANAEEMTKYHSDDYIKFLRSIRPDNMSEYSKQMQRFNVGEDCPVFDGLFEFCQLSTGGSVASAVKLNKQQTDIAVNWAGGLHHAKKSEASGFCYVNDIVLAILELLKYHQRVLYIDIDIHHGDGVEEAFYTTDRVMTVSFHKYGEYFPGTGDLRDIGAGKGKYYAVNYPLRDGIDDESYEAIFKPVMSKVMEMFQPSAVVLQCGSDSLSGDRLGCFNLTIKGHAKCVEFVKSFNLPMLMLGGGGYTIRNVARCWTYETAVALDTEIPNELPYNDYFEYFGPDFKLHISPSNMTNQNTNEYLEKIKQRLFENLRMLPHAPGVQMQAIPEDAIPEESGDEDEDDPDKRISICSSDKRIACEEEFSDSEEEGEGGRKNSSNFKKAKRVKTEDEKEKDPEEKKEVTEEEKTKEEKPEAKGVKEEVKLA

| SMILES | IC50 (HDAC6) [µM] | IC50 (HDAC8) [µM] | IC50 (HDAC3) [µM] | transfection (Neuro2A cells) | IC50 (HDAC2) [µM] | IC50 (HDAC1) [µM] |
| --- | --- | --- | --- | --- | --- | --- |
| CCCCOc1ccc(CC(=O)NO)cc1 [Bufexamac] | 10.7 | 235 | 341 |  |  |  |
| COc1ccc2c(c1)c(C1=C(c3c[nH]c4ccccc34)C(=O)NC1=O)cn2CCCN(C)C [GÖ6983] |  |  |  | substantially reduced transfection |  |  |
| Nc1ccccc1NC(=O)CCCCCCC(=O)Nc1ccccc1 [BML-210] |  |  | 2.62 |  | 10.9 | 15 |
